These results are taken from ChEMBL document CHEMBL1146789, “(+/-)8-Amino-5,6,7,8-tetrahydroisoquinolines as novel antinociceptive agents” (Bioorg Med Chem Lett, 2004).

Data set [1] has as its target T1, Neuronal acetylcholine receptor; alpha4/beta2 (Homo sapiens, UniProt P17787+P43681). Kind of data set: Affinity for nicotinic acetylcholine receptor alpha4-beta2. It is filed as protein-complex assay.
Data set [2] relates to Mus musculus. Description: Antinociceptive action was determined by hotplate assay in mouse administered subcutaneously at a dose of 10 mg/kg. The note with it: route subcutaneous. It is filed as functional.
In data set [3] the test system is Mus musculus. Kind of data set: Antinociceptive action was determined by tail-flick assay in mouse administered intrathecally. It is filed as functional. As to conditions: central. (Thermal pain tests record how soon the animal reacts.)
The test system of data set [4] is Mus musculus. Kind of data set: Antinociceptive action was determined by tail-flick assay in mouse administered subcutaneously at a dose of 10 mg/kg. It is filed as functional. As to conditions: route subcutaneous.
For data set [5], the system named is Mus musculus. Description: Antinociceptive action was determined by tail-flick assay in mouse administered subcutaneously. It is filed as functional. The note with it: sc.
In data set [6] the test system is Mus musculus. Kind of data set: Antinociceptive action was determined by hotplate assay in mouse administered subcutaneously. It is filed as functional. As to conditions: sc.
In data set [7] the test system is Mus musculus. Description: Antinociceptive action was determined by tail-flick assay in mouse administered intrathecally at a dose of 20-25 ug. It is filed as functional.
The target in data set [8] is T1, Neuronal acetylcholine receptor; alpha4/beta2. Description: Affinity for nicotinic acetylcholine receptor alpha4-beta2; NA = Not active. It is filed as protein-complex assay.
The species entered for data set [9] is Mus musculus. Kind of data set: Antinociceptive action was determined; P- Possess activity. It is filed as functional, organism-based.
Data set [10] concerns the target Muscarinic acetylcholine receptor M4 (Homo sapiens, UniProt P08173). Kind of data set: Affinity towards human Muscarinic acetylcholine receptor M4.
Data set [11] concerns the target Sodium-dependent dopamine transporter (Homo sapiens) (UniProt Q01959). Description: Binding towards dopamine transporter; NA- Not active.
Another data set deals with D(3) dopamine receptor (Homo sapiens, UniProt P35462). Description: Affinity towards human dopamine receptor D3.
Chain of D(3) dopamine receptor (P35462 whole entry): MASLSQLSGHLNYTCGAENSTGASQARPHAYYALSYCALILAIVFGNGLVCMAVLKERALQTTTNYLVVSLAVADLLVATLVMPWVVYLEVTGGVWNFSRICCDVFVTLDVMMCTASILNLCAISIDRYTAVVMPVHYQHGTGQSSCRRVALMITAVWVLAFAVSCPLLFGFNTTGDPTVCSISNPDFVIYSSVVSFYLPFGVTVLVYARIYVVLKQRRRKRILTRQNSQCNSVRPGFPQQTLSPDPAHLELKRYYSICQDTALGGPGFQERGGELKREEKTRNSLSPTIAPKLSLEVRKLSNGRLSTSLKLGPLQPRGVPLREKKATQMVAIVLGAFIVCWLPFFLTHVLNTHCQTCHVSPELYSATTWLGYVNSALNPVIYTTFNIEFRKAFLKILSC
The target of data set [12] is Delta-type opioid receptor (Homo sapiens, UniProt P41143). Kind of data set: Affinity towards opioid receptor delta 1.
The nature of data set [13]: Binding towards chloride channel(Cl-); NA = Not active.
Data set [14] addresses Muscarinic acetylcholine receptor M3 (Homo sapiens, UniProt P20309). Description: Affinity towards human muscarinic acetylcholine receptor M3.
The next data set concerns the target Adenosine receptor A1 (Homo sapiens, UniProt P30542). Kind of data set: Affinity towards human adenosine A1 receptor.
Data set [15] addresses 5-hydroxytryptamine receptor 1B (Homo sapiens, UniProt P28222). Kind of data set: Affinity towards human 5-hydroxytryptamine 1B serotonin receptor.
Data set [16] addresses Muscarinic acetylcholine receptor M5 (Homo sapiens, UniProt P08912). Kind of data set: Affinity towards human Muscarinic acetylcholine receptor M5.
For the next data set, the target named is Mu-type opioid receptor (Homo sapiens, UniProt P35372). Description: Affinity towards opioid receptor mu 1.
The target in data set [17] is Muscarinic acetylcholine receptor M2 (Homo sapiens, UniProt P08172). Description: Affinity towards human muscarinic acetylcholine receptor M2.
The next data set deals with Histamine H1 receptor (Homo sapiens, UniProt P35367). Description: Affinity towards histamine H1 receptor.
The next data set has as its target D(4) dopamine receptor (Homo sapiens, UniProt P21917). Kind of data set: Affinity towards human dopamine receptor D4.
A further data set deals with Translocator protein (Homo sapiens, UniProt P30536). Kind of data set: Binding affinity for peripheral benzodiazepine receptor.
Data set [18] deals with Adrenergic receptor alpha-1 (Homo sapiens, UniProt P35348+P25100+P35368). Description: Affinity towards alpha-1 adrenergic receptor. It is filed as protein assay.
The nature of data set [19]: Binding towards calcium channel(Ca++); NA- Not active.
Data set [20] deals with 5-hydroxytryptamine receptor 5A (Homo sapiens, UniProt P47898). Description: Affinity towards human 5-hydroxytryptamine 5A serotonin receptor.
The target in data set [21] is Muscarinic acetylcholine receptor M1 (Homo sapiens, UniProt P11229). Kind of data set: Affinity towards human muscarinic acetylcholine receptor M1.
Chain of Muscarinic acetylcholine receptor M1 (P11229 whole entry): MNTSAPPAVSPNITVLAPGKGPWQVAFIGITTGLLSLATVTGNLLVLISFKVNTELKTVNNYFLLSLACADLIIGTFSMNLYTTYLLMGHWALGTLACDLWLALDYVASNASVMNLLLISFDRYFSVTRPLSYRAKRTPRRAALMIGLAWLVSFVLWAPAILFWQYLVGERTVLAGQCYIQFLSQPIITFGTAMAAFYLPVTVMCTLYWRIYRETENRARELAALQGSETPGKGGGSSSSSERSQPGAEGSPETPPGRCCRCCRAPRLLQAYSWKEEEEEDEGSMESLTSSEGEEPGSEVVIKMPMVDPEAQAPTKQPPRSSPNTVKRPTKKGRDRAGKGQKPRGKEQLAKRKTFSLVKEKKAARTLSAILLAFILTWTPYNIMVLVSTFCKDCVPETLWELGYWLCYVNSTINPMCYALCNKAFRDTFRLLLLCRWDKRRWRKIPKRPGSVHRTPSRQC
The target in data set [22] is 5-hydroxytryptamine receptor 6 (Homo sapiens, UniProt P50406). Description: Affinity towards human 5-hydroxytryptamine 6 serotonin receptor.
Data set [23] deals with Kappa-type opioid receptor (Homo sapiens, UniProt P41145). Description: Affinity towards kappa opioid receptor.
Data set [24] addresses 5-hydroxytryptamine receptor 2B (Homo sapiens, UniProt P41595). Kind of data set: Affinity towards human 5-hydroxytryptamine 2B serotonin receptor.
Data set [25] concerns the target Adrenergic receptor alpha-2 (Homo sapiens, UniProt P08913+P18825+P18089). Description: Affinity towards alpha-2 adrenergic receptor. It is filed as protein assay.
The next data set deals with D(2) dopamine receptor (Homo sapiens, UniProt P14416). Description: Affinity towards human dopamine receptor D2.
Data set [26] has as its target 5-hydroxytryptamine receptor 1A (Homo sapiens, UniProt P08908). Kind of data set: Affinity towards human 5-hydroxytryptamine 1A serotonin receptor.
Data set [27] has as its target GABA-A receptor; anion channel. Description: Binding affinity for GABA-A central benzodiazepine receptor. It is filed as protein-complex assay.
For another data set, the target named is Histamine H2 receptor (Homo sapiens, UniProt P25021). Description: Affinity towards histamine H2 receptor.
The next data set concerns the target D(1B) dopamine receptor (Homo sapiens, UniProt P21918). Description: Affinity towards human dopamine receptor D5.
Data set [28] has as its target Serotonin 3 (5-HT3) receptor. Kind of data set: Affinity towards human 5-hydroxytryptamine 3 serotonin receptor. It is filed as protein-complex assay.
A further data set deals with Adenosine A2 receptor (Homo sapiens, UniProt P29275+P29274). Kind of data set: Affinity towards human adenosine A2 receptor. It is filed as protein assay.
Data set [29] deals with Beta-2 adrenergic receptor (Homo sapiens, UniProt P07550). Description: Affinity towards human beta-2 adrenergic receptor.
Data set [30] concerns the target A-type voltage-gated potassium channel KCND3 (Homo sapiens, UniProt Q9UK17). Kind of data set: Binding towards potassium channel(K+); NA = Not active.
Data set [31] in a line: Binding towards sodium channel(Na+); NA = Not active.
The next data set deals with Adenosine receptor A3 (Homo sapiens, UniProt P0DMS8). Description: Affinity towards human adenosine A3 receptor.
Chain of Adenosine receptor A3 (P0DMS8 whole entry): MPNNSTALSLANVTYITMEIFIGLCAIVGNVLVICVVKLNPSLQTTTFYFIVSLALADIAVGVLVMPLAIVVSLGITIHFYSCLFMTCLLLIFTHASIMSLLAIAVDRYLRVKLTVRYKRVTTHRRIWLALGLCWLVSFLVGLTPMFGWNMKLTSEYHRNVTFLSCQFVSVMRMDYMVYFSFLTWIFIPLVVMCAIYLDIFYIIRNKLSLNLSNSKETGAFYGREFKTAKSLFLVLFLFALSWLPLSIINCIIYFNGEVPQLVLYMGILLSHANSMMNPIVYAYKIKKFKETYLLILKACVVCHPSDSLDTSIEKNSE
Data set [32] concerns the target 5-hydroxytryptamine receptor 2C (Homo sapiens, UniProt P28335). Kind of data set: Affinity towards human 5-hydroxytryptamine 2C serotonin receptor.
A further data set concerns the target D(1A) dopamine receptor (Homo sapiens, UniProt P21728). Description: Affinity towards human Dopamine receptor D1.
Data set [33] addresses 5-hydroxytryptamine receptor 7 (Homo sapiens, UniProt P34969). Description: Affinity towards human 5-hydroxytryptamine 7 serotonin receptor.
For data set [34], the target named is Sodium-dependent noradrenaline transporter (Homo sapiens) (UniProt P23975). Description: Binding towards norepinephrine transporter; NA= Not active.
Chain of Sodium-dependent noradrenaline transporter (Homo sapiens) (P23975 whole entry): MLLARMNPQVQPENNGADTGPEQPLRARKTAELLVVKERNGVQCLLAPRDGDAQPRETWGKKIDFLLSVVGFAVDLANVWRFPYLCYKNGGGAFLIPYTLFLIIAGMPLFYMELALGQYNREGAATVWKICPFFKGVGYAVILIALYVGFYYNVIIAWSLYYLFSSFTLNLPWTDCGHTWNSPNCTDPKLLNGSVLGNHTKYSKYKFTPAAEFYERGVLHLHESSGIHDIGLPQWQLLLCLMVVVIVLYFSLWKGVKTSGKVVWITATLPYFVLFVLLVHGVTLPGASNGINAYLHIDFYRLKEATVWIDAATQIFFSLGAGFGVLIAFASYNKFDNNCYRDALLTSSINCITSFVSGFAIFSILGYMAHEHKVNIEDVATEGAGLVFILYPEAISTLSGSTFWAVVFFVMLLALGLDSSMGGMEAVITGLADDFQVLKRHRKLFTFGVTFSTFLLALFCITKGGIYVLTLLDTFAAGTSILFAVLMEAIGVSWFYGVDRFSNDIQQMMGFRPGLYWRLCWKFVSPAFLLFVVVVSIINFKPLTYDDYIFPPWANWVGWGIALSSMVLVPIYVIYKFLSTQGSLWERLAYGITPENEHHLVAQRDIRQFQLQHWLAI

Active and inactive are the calls of the source. No cut-off for these calls is given here. Some results are limits rather than exact numbers.

T1 sequence (P17787 whole entry): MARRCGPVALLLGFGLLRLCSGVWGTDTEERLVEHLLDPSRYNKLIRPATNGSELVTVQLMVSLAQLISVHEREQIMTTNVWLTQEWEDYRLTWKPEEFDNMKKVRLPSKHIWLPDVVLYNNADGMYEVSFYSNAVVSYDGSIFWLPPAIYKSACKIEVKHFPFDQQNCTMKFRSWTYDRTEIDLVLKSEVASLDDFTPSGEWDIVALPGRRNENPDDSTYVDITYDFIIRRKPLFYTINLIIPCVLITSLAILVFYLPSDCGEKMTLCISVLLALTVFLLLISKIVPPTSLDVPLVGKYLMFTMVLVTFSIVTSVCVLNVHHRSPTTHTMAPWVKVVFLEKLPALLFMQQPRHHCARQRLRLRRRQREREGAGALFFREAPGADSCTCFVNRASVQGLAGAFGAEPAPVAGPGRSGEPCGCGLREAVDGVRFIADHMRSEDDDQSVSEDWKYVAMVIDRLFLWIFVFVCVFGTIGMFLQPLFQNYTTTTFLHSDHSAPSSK
T1 sequence (P43681 whole entry): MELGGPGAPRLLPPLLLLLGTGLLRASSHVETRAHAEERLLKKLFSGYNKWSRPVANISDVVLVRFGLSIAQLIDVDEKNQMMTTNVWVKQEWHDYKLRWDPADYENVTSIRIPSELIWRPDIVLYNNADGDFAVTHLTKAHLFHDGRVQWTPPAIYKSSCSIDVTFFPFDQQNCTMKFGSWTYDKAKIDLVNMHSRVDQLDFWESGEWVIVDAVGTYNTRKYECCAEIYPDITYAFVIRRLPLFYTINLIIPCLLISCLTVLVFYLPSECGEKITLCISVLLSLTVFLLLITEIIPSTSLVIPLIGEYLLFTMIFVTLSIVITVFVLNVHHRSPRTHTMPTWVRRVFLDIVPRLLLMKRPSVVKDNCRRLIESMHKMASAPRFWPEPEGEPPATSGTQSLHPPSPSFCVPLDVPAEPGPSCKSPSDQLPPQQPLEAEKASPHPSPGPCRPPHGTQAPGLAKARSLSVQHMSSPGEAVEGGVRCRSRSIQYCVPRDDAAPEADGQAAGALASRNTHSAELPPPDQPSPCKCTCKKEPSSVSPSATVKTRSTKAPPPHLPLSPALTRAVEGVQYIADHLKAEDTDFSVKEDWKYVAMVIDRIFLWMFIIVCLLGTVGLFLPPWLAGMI
Chain of Sodium-dependent dopamine transporter (Homo sapiens) (Q01959 whole entry): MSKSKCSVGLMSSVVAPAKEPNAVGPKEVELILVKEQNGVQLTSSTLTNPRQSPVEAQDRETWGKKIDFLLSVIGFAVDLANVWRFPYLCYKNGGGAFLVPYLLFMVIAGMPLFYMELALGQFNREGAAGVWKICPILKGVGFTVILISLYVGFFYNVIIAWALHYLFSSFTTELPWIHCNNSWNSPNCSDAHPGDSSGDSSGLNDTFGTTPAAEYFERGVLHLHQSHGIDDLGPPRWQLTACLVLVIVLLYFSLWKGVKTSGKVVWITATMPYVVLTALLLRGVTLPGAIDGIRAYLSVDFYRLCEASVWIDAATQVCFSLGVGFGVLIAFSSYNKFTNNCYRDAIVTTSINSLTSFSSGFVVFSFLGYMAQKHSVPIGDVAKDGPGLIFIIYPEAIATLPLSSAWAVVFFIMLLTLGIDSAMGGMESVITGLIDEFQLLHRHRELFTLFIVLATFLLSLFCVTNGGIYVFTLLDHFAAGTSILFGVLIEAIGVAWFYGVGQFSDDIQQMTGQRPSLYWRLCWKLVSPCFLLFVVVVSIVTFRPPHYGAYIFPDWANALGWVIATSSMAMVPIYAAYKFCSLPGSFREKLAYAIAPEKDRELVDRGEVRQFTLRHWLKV
Chain of Adenosine receptor A1 (P30542 whole entry): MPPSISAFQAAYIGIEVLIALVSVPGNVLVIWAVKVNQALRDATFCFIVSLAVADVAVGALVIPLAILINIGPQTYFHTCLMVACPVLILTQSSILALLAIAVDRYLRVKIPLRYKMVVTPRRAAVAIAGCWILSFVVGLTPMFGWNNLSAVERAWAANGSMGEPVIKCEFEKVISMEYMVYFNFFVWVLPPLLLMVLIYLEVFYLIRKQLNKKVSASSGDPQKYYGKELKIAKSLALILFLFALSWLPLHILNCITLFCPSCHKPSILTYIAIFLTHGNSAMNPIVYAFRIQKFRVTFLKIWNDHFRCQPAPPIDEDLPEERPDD
Chain of 5-hydroxytryptamine receptor 7 (P34969 whole entry): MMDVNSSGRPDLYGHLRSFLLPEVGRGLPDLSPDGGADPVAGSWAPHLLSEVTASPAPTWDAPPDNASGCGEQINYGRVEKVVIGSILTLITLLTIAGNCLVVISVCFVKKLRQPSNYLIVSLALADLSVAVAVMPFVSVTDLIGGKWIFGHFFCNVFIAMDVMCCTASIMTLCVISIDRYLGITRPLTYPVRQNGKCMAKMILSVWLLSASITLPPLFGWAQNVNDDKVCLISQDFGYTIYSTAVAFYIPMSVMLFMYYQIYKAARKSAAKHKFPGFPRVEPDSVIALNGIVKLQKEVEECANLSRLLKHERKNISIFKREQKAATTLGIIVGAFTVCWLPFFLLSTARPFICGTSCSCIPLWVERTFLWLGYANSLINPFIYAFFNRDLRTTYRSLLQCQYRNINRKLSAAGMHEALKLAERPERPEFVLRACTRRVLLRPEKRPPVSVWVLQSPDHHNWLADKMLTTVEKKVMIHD
Chain of Muscarinic acetylcholine receptor M5 (P08912 whole entry): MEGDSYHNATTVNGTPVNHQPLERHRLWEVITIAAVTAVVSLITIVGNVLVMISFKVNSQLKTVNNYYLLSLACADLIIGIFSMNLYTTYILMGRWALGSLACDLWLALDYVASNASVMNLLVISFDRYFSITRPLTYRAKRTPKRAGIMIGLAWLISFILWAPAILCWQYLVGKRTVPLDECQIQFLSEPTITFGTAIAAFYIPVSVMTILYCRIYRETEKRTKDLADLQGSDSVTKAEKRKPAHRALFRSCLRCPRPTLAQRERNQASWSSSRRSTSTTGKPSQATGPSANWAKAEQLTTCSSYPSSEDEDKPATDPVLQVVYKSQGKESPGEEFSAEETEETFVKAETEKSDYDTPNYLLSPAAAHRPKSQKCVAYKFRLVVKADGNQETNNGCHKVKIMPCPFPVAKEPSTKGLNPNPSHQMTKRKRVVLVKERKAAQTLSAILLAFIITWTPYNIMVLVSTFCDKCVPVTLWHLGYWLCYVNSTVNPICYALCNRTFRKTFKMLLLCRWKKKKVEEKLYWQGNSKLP

As to `CNC1CCCc2ccncc21` (stereo not given), the inhibition constant Ki in [1] was over 10 µM. Besides, the MPE was 2% in the data set on Mus musculus [2] and 0% in the data set on Mus musculus [4]. In the data set on Mus musculus [3], this compound returned an ED50 of 13 µg/mouse.

For `CN1CCC[C@H]1c1cccnc1` [NICOTINE], the ED50 in the data set with Mus musculus [5] was determined as 1.5 mg/kg; with Mus musculus [6], 0.5 mg/kg; in the data set with Mus musculus [3], 12 µg/mouse.

On to `CCCNC1CCCc2ccncc21` (stereo not given), for which the inhibition constant Ki in data set [1] was over 10 µM.

In data set [1], `c1cc2c(cn1)C(N1CCCC1)CCC2` (stereo not given) had a Ki of over 10 µM. Further, the MPE with Mus musculus [2] stood at 11%; in the data set with Mus musculus [7], 6%; in the data set with Mus musculus [4], 2%.

Consider `CN1CCC2CCc3ccncc3C21` (stereo not given), for which, in [8], the Ki result is recorded as “Not Active”. For the same compound, the outcome in the data set listed under Mus musculus [9] was Active.

For `CCN(C)C1CCCc2ccncc21.O=C(O)/C=C\C(=O)O.O=C(O)/C=C\C(=O)O` (stereo not given), the Ki was over 10 µM in data set [10]; over 10 µM on D(3) dopamine receptor; over 10 µM in data set [12]; 0.93 µM in data set [1]; over 10 µM in data set [14]; over 10 µM on Adenosine receptor A1. Further, the inhibition constant (Ki) (in data set [15]; in data set [16]; at Mu-type opioid receptor; in data set [17]; on Histamine H1 receptor; at D(4) dopamine receptor) was over 10 µM each time. Besides, the Ki (at Translocator protein; in data set [18]; in data set [20]; in data set [21]; in data set [22]; in data set [23]) was over 10 µM in each case. Further, the inhibition constant Ki (in data set [24]; in data set [25]; at D(2) dopamine receptor; in data set [26]; in data set [27]; at Histamine H2 receptor) was over 10 µM each time. The inhibitory constant (Ki) (on D(1B) dopamine receptor; in [28]; on Adenosine A2 receptor; in data set [29]; on Adenosine receptor A3; in data set [32]) was over 10 µM each time. Also, the Ki (at D(1A) dopamine receptor; in data set [33]) was over 10 µM throughout. Moreover, the result in data set [11], in [13], in [19], in data set [31] and in data set [34] was inactive. For the same compound, the ED50 in the data set on Mus musculus [5] was 0.6 mg/kg; with Mus musculus [6] it was 0.2 mg/kg; in the data set with Mus musculus [3] it was 12 µg/mouse. The Activity entry in [30] is on record as “Not Active”.

For the compound `COc1cc2c(cn1)C1NCCC1CC2` (stereo not given), the inhibition constant (Ki) entry in [8] was “Not Active”. In addition, the outcome in the data set listed under Mus musculus [9] was Active.

For `CCCN(C)C1CCCc2ccncc21` (stereo not given), in data set [1], the inhibition constant Ki was over 10 µM.

On to `CN(C)C1CCCc2ccncc21` (stereo not given), for which, in [1], the Ki was found to be 0.33 µM. Besides, the MPE is 8% in the data set on Mus musculus [7] and 2% in the data set with Mus musculus [4]. This compound also came in with an ED50 in the data set with Mus musculus [6] of 3.9 mg/kg.

In turn, `NC1CCCc2ccncc21` (stereo not given) showed a Ki in data set [1] of over 10 µM. For the same compound, the MPE is recorded as 10% with Mus musculus [2] and 1% in the data set with Mus musculus [4].

In general, Ki refers to a measure of affinity in units of concentration, obtained from inhibition or displacement. A high value points to a looser hold on the target.
